Our source for the Ki values is US10501461B2, “Tyrosine amide derivatives as Rho-kinase inhibitors” (CHIESI FARMACEUTICI S.P.A., priority 2017, dated 2019).

Assay [1] has as its target Rho kinase 1 (ROCK-I) (Homo sapiens, UniProt Q13464). Nature of the assay: In vitro Rho kinase inhibitory activity assay (ADP-Glo), Rho kinase 1. Format: biochemical. Conditions: 10 μM ATP, 25° C., expressed as range of activity. How it is done: (§1) The effectiveness of compounds of the present invention to inhibit Rho kinase activity can be determined in a 10 μl assay containing 40 mM Tris pH7.5, 20 mM MgCl2 0.1 mg/ml BSA, 50 μM DTT and 2.5 μM peptide substrate (Myelin Basic Protein) using an ADP-Glo kit (Promega). Compounds were dissolved in DMSO such that the final concentration of DMSO was 1% in the assay. All reactions/incubations are performed at 25° C. Compound (2 ul) and either Rho kinase 1 or 2 (4 μl) were mixed and incubated for 30 mins. Reactions were initiated by addition of ATP (4 μl) such that the final concentration of ATP in the assay was 10 μM. After a 1 hour incubation 10 μl of ADP-Glo Reagent was added and after a further 45 minute incubation 20 ul of Kinase Detection Buffer was added and the mixture incubated for a further 30 minutes. The luminescent signal was measured on a luminometer. […] Compounds were tested in dose-response format and the inhibition of kinase activity was calculated at each concentration of compound. To determine the IC50 (concentration of compound required to inhibit 50% of the enzyme activity) data were fit to a plot of % inhibition vs Log10 compound concentration using a sigmoidal fit with a variable slope and fixing the maximum to 100% and the minimum to 0%. To determine the Ki values the Cheng-Prusoff equation was utilized (Ki=IC50/(1+[S]/Km).
(In general: In ADP-Glo the light output rises with the ADP produced.)

For assay [2], the target named is Rho kinase 2 (ROCK-II) (Homo sapiens, UniProt O75116). Nature of the assay: In vitro Rho kinase inhibitory activity assay (ADP-Glo), Rho kinase 2. Format: biochemical. To be noted: 10 μM ATP, 25° C., expressed as range of activity. The method, then: as §1
Sequence of Rho kinase 2 (ROCK-II) (O75116 whole entry): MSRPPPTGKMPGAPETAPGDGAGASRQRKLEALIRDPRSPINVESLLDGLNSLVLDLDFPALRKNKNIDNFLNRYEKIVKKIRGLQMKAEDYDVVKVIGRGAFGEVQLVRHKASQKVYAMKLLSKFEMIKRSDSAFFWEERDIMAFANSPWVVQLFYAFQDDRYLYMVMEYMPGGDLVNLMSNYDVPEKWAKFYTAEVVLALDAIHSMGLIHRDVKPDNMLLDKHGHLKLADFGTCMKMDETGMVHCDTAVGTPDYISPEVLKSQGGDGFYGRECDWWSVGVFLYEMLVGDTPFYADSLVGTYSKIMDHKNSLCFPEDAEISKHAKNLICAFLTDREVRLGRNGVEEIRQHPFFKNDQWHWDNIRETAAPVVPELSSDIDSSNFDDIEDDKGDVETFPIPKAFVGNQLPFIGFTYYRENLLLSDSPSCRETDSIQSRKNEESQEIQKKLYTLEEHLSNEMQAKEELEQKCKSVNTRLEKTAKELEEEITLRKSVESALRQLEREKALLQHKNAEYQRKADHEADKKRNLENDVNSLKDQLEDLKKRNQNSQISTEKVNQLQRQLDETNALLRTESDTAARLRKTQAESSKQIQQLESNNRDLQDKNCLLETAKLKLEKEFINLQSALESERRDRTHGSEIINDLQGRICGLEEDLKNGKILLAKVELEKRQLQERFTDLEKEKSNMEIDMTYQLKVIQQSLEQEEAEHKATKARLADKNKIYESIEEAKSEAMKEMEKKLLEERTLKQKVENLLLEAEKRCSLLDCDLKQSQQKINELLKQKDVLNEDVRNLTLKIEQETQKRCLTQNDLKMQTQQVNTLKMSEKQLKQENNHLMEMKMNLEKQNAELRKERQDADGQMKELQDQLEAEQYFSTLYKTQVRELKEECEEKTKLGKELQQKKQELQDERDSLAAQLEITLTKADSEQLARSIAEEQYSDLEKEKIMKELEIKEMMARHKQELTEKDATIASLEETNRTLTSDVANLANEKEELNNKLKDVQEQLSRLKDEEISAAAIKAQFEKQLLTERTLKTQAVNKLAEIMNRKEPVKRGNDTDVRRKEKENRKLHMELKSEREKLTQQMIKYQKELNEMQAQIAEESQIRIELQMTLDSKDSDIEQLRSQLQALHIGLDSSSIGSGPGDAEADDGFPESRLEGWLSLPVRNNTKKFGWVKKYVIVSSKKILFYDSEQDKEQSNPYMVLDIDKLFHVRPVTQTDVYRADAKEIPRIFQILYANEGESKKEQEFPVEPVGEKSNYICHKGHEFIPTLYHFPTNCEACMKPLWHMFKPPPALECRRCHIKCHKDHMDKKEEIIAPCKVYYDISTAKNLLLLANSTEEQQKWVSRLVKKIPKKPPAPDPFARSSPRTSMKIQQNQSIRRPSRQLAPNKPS

Sequence of Rho kinase 1 (ROCK-I) (Q13464 whole entry): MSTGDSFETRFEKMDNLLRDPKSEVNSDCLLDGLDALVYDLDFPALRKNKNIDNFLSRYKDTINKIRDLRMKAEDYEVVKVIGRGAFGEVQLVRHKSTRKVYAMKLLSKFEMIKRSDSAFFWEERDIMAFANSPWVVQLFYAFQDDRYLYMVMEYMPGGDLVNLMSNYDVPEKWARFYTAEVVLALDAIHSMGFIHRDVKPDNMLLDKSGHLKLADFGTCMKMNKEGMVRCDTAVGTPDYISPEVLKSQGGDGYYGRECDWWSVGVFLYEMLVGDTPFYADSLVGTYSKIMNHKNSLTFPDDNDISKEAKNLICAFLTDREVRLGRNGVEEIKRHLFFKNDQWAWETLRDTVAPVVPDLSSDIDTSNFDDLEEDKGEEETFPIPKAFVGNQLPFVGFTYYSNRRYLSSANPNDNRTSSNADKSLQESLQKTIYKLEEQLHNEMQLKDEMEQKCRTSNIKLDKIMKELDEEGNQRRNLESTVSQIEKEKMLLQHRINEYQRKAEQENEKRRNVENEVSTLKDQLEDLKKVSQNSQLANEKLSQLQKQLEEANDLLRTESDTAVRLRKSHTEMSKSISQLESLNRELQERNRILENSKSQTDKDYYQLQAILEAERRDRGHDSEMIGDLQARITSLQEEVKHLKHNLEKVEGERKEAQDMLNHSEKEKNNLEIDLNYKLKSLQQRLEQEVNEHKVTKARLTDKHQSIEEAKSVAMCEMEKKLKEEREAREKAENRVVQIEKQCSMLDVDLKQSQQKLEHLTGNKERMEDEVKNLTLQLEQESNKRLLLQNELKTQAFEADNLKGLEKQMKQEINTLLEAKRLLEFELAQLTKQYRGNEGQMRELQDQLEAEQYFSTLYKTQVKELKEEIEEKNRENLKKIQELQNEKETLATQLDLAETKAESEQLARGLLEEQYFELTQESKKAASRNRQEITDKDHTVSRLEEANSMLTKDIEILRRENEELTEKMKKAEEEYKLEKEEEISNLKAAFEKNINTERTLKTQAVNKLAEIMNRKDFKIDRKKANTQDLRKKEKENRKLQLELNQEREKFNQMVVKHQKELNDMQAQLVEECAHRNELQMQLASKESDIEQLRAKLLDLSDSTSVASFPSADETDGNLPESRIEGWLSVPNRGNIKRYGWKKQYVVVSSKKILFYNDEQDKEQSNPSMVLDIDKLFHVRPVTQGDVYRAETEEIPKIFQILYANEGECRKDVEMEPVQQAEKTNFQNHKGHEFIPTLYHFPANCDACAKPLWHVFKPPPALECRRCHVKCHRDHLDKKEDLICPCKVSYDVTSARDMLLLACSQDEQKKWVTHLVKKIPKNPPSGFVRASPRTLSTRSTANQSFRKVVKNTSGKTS

As for `CN(C)CCNC(=O)C(Cc1ccc(Oc2ccnc3[nH]ccc23)cc1)NC(=O)C1CCCCC1` (stereo not shown) [Example 181, N-(3-(4-((1H-pyrrolo[2,3-b]pyridin-4-yl)oxy)phenyl)-1-((2-(dimethylamino)ethyl)amino)-1-oxopropan-2-yl)cyclohexanecarboxamide], the Ki in assay [1] and in assay [2] was more than 30 nM each time.

As to `Cc1c[nH]c2nccc(Oc3ccc(CC(N)C(=O)N4CCCC4c4ccccc4)cc3F)c12` (single isomer, unassigned) [Example 85, 2-amino-3-(3-fluoro-4-((3-methyl-1H-pyrrolo[2,3-b]pyridin-4-yl)oxy)phenyl)-1-(2-phenylpyrrolidin-1-yl)propan-1-one], the Ki in assay [1] and in assay [2] was 3 to 30 nM throughout.

In the case of `N[C@@H](Cc1ccc(Oc2ccnc3[nH]cc(Br)c23)cc1)C(=O)NC1CCOCC1` [Example 189, (S)-2-amino-3-(4-((3-bromo-1H-pyrrolo[2,3-b]pyridin-4-yl)oxy)phenyl)-N-(tetrahydro-2H-pyran-4-yl)propanamide], the Ki in assay [1] and in assay [2] was less than 3 nM throughout.

Take `N[C@@H](Cc1ccc(Oc2ccnc3[nH]cc(F)c23)cc1)C(=O)N1CCN(Cc2ccccc2)CC1` [Example 114, (S)-2-amino-1-(4-benzylpiperazin-1-yl)-3-(4-((3-fluoro-1H-pyrrolo[2,3-b]pyridin-4-yl)oxy)phenyl)propan-1-one]: the Ki in assay [1] and in assay [2] was less than 3 nM each time.

`N[C@H](Cc1ccc(Oc2ccnc3[nH]ccc23)cc1)C(=O)Nc1nccs1` [Example 106, (R)-3-(4-((1H-pyrrolo[2,3-b]pyridin-4-yl)oxy)phenyl)-2-amino-N-(thiazol-2-yl)propanamide]: the Ki in assay [1] and in assay [2] was more than 30 nM in each case.

As to `Cc1c[nH]c2nccc(Oc3ccc(CC(N)C(=O)N4CCC(c5ccncc5)C4)cc3F)c12` (racemic) [Example 66, 2-amino-3-(3-fluoro-4-((3-methyl-1H-pyrrolo[2,3-b]pyridin-4-yl)oxy)phenyl)-1-(3-(pyridin-4-yl)pyrrolidin-1-yl)propan-1-one], the Ki in assay [1] and in assay [2] was less than 3 nM throughout.

For `N[C@@H](Cc1ccc(Oc2ccnc3[nH]cc(C#CCO)c23)cc1)C(=O)NC1CCCCC1` [Example 217, (S)-2-amino-N-cyclohexyl-3-(4-((3-(3-hydroxyprop-1-yn-1-yl)-1H-pyrrolo[2,3-b]pyridin-4-yl)oxy)phenyl)propanamide], the Ki in assay [1] and in assay [2] was less than 3 nM throughout.

With `N[C@@H](Cc1ccc(Oc2ccnc3[nH]ccc23)cc1)C(=O)Nc1ccc(Cl)nc1` [Example 94, (S)-3-(4-((1H-pyrrolo[2,3-b]pyridin-4-yl)oxy)phenyl)-2-amino-N-(6-chloropyridin-3-yl)propanamide], the Ki in assay [1] and in assay [2] was less than 3 nM in each case.

Turning to `Cc1c[nH]c2nccc(Oc3ccc(CC(N)C(=O)NCCc4ccncc4)cc3F)c12` (stereo not shown) [Example 57, 2-amino-3-(3-fluoro-4-((3-methyl-1H-pyrrolo[2,3-b]pyridin-4-yl)oxy)phenyl)-N-(2-(pyridin-4-yl)ethyl)propanamide], the Ki in assay [1] and in assay [2] was less than 3 nM each time.

In the case of `N[C@@H](Cc1ccc(Oc2ccnc3[nH]cc(CO)c23)c(F)c1)C(=O)NC1CCOCC1` [Example 209, (S)-2-amino-3-(3-fluoro-4-((3-(hydroxymethyl)-1H-pyrrolo[2,3-b]pyridin-4-yl)oxy)phenyl)-N-(tetrahydro-2H-pyran-4-yl)propanamide], the results for the Ki in assay [1] and in assay [2] were 3 to 30 nM and less than 3 nM, respectively.

Regarding `Cc1c[nH]c2nccc(Oc3ccc(C[C@H](N)C(=O)N4CCN(CC5CCN(S(C)(=O)=O)CC5)CC4)cc3F)c12` [Example 161, (S)-2-amino-3-(3-fluoro-4-((3-methyl-1H-pyrrolo[2,3-b]pyridin-4-yl)oxy)phenyl)-1-(4-((1-(methylsulfonyl)piperidin-4-yl)methyl)piperazin-1-yl)propan-1-one], the Ki in assay [1] and in assay [2] was less than 3 nM throughout.

As to `Cc1c[nH]c2nccc(Oc3ccc(C[C@H](N)C(=O)NCc4ccccc4)cc3)c12` [Example 135, (S)-2-amino-N-benzyl-3-(4-((3-methyl-1H-pyrrolo[2,3-b]pyridin-4-yl)oxy)phenyl)propanamide], the inhibition constant (Ki) in assay [1] and in assay [2] was less than 3 nM each time.

In the case of `Cc1c[nH]c2nccc(Oc3ccc(C[C@H](N)C(=O)NCC4CCCCC4)cc3)c12` [Example 139, (S)-2-amino-N-(cyclohexylmethyl)-3-(4-((3-methyl-1H-pyrrolo[2,3-b]pyridin-4-yl)oxy)phenyl)propanamide], the inhibition constant Ki in assay [1] and in assay [2] was less than 3 nM each time.

`Cc1c[nH]c2ncnc(Oc3ccc(C[C@H](N)C(=O)NCCCN(C)C)cc3F)c12` [Example 116, (S)-2-amino-N-(3-(dimethylamino)propyl)-3-(3-fluoro-4-((5-methyl-7H-pyrrolo[2,3-d]pyrimidin-4-yl)oxy)phenyl)propanamide]: the Ki in assay [1] and in assay [2] was 3 to 30 nM each time.

On to `Cn1cncc1-c1c[nH]c2nccc(Oc3ccc(C[C@H](N)C(=O)N4CCN(Cc5ccccc5)CC4)cc3)c12` [Example 197, (S)-2-amino-1-(4-benzylpiperazin-1-yl)-3-(4-((3-(1-methyl-1H-imidazol-5-yl)-1H-pyrrolo[2,3-b]pyridin-4-yl)oxy)phenyl)propan-1-one], for which the Ki in assay [1] and in assay [2] was less than 3 nM throughout.

Take `COCc1c[nH]c2nccc(Oc3ccc(C[C@H](N)C(=O)N4CCN(C)CC4)cc3F)c12` [Example 215, (S)-2-amino-3-(3-fluoro-4-((3-(methoxymethyl)-1H-pyrrolo[2,3-b]pyridin-4-yl)oxy)phenyl)-1-(4-methylpiperazin-1-yl)propan-1-one]: the Ki in assay [1] and in assay [2] was 3 to 30 nM throughout.

In the case of `Cc1c[nH]c2nccc(Oc3ccc(C[C@H](N)C(=O)N4CCc5ccccc5C4)cc3F)c12` [Example 10, (S)-2-amino-1-(3,4-dihydroisoquinolin-2(1H)-yl)-3-(3-fluoro-4-((3-methyl-1H-pyrrolo[2,3-b]pyridin-4-yl)oxy)phenyl)propan-1-one], the Ki in assay [1] and in assay [2] was less than 3 nM in each case.

Regarding `Cc1c[nH]c2nccc(Oc3ccc(CC(N)C(=O)Nc4cccnc4)cc3F)c12` (stereo not shown) [Example 70, 2-amino-3-(3-fluoro-4-((3-methyl-1H-pyrrolo[2,3-b]pyridin-4-yl)oxy)phenyl)-N-(pyridin-3-yl)propanamide], the Ki in assay [1] and in assay [2] was less than 3 nM each time.

Take `CN(C)CCNC(=O)[C@H](N)Cc1ccc(Oc2ccnc3[nH]ccc23)cc1` [Example 96, (R)-3-(4-((1H-pyrrolo[2,3-b]pyridin-4-yl)oxy)phenyl)-2-amino-N-(2-(dimethylamino)ethyl)propanamide]: the Ki in assay [1] and in assay [2] was more than 30 nM in each case.

As to `Cc1c[nH]c2nccc(Oc3ccc(C[C@H](N)C(=O)NC4CCCCC4)cc3F)c12` [Example 20, (S)-2-amino-N-cyclohexyl-3-(3-fluoro-4-((3-methyl-1H-pyrrolo[2,3-b]pyridin-4-yl)oxy)phenyl)propanamide], the inhibitory constant (Ki) in assay [1] and in assay [2] was less than 3 nM each time.
